Experimental data published in PMC8869984, “Multifunctional Silver(I) Complexes with Metronidazole Drug Reveal Antimicrobial Properties and Antitumor Activity against Human Hepatoma and Colorectal Adenocarcinoma Cells” (Cancers, 2022).
Like-named read-outs stand apart in the source and are kept apart here.

What was measured:
E. coli ATCC 25922 = assay: micro-dilution broth method (MIC, MBC); assay type: cell-based, Escherichia coli
V. parvula ATCC 10790 = assay: micro-dilution broth method (MIC, MBC); assay type: cell-based, Veillonella parvula
B. cereus ATCC 10876 = assay: micro-dilution broth method (MIC, MBC); assay type: cell-based, Bacillus cereus
P. acnes ATCC 11827 = assay: micro-dilution broth method (MIC, MBC); assay type: cell-based, Propionibacterium acnes
HepG2 cells [1] = assay: TPC assay (total protein content), 72 h exposure; assay type: cell-based, human; conditions: mean ± SD, n = 3
Method: (§1) The human hepatoma (HepG2) and colorectal adenocarcinoma (Caco-2) cells were purchased from the American Type Culture Collection: ATCC HB-8065 and ATCC HTB-37, respectively. These cells were cultured in Minimum Essential Medium Eagle (MEME) (ATCC). The murine fibroblasts cell line (Balb/c 3T3 clone A31) (gift from the Department of Swine Diseases of the National Veterinary Research Institute in Pulawy) was cultured in Dulbecco’s Modified Eagle Medium (DMEM) (ATCC). The media were supplemented with 10% BCS (Balb/c 3T3), 10% FBS (HepG2), 20% FBS (Caco-2), 1% L-glutamine, 1% antibiotic solution. The cells were maintained in 75 cm^2 cell culture flasks (NUNC) in a humidified incubator at 37 °C in an atmosphere of 5% CO2. The medium was refreshed every two or three days, and the cells were trypsinized by 0.25% trypsin–0.02% EDTA after reaching 70–80% confluence. Single cell suspensions were prepared and adjusted to a density of 2 × 10^5 cell/mL^−1 (HepG2), 1 × 10^5 cell/mL^−1 (Caco-2) and 5 × 10^4 cell/mL^−1 (Balb/c 3T3). The cell suspension was transferred to 96-well plates (100 µL/well) and incubated for 24 h before the exposure to the studied compounds. Stock solutions of ligands and metal complexes were prepared in sterile water and diluted with culture medium to obtain a concentration range from 0.1 to 10 µM. The final concentration of sterile water was 0.1% in the medium. […] As a negative control, cultured cells were grown in the absence of studied compounds. Each concentration was tested in six replicates in three independent experiments. Cytotoxicity was assessed after 72 h of exposure of the cells to compounds. The medium was not changed during the incubation time.
This assay is based upon staining the total cellular protein (proliferation). After the incubation, the medium containing the drug was removed, and 100 µL Coomassie brilliant blue R-250 dye was added to each well. The plate was shaken for 10 min. Then, the stain was removed and the cells were rinsed twice with 100 µL of washing solution (glacial acetic acid/ethanol/water, 5:10:85, v:v:v). After that, 100 µL of the desorbing solution (1 M potassium acetate) was added, and plates were shaken again for 10 min. The absorbance was measured at 595 nm in a microplate reader Synergy HTX multi-mode reader (BioTek® Instruments Inc., Winooski, VT, USA) using a blank as a reference. Cytotoxicity was expressed as a percentage of the negative control.
The study was performed in three independent experiments. The obtained results are presented as mean values ± SD (standard deviation). The assessment of the cytotoxicity data used a one-way analysis of variance (ANOVA) followed by Dunnett’s post hoc test, which was applied to determine significance relative to the negative control.

[2] = system: S. typhimurium ATCC 14028; assay: micro-dilution broth method (MIC, MBC); assay type: cell-based, Salmonella Typhimurium
E. faecalis ATCC 29212 = assay: micro-dilution broth method (MIC, MBC); assay type: cell-based, Enterococcus faecalis
S. aureus ATCC 25923 = assay: micro-dilution broth method (MIC, MBC); assay type: cell-based, Staphylococcus aureus
H. pylori ATCC 43504 = assay: micro-dilution broth method (MIC, MBC); assay type: cell-based
M. luteus ATCC 10240 = assay: micro-dilution broth method (MIC, MBC); assay type: cell-based, Micrococcus luteus
HepG2 cells [3] = assay: NRU assay (lysosomal activity), 72 h exposure; assay type: cell-based, human; conditions: Homo sapiens, mean ± SD, n = 3
Method: as §1
This method is based on staining living cells with neutral red, which readily diffuses through the plasma membrane and accumulates in lysosomes. […] After 10 min of shaking, the absorbance of the dissolved NR was measured using a Synergy HTX multi-mode reader (BioTek® Instruments Inc., Winooski, VT, USA) at 540 nm using a blank as a reference. Cytotoxicity was expressed as a percentage of the negative control. […]

HepG2 cells [4] = assay: MTT assay (mitochondrial activity), 72 h exposure; assay type: cell-based, human; conditions: Homo sapiens, mean ± SD, n = 3
Method: as §1
The metabolic activity of living cells was assessed by the measurement of the activity of dehydrogenases. […] The plate was shaken for 15 min at room temperature and transferred to a microplate reader Synergy HTX multi-mode reader (BioTek® Instruments Inc., Winooski, VT, USA) to measure the absorbance at 570 nm, using a blank as a reference. Cytotoxicity was expressed as a percentage of the negative control. […]

[5] = E. coli ATCC 25922, value in brackets
[6] = V. parvula ATCC 10790, value in brackets
[7] = B. cereus ATCC 10876, value in brackets
[8] = P. acnes ATCC 11827, value in brackets
[9] = S. typhimurium ATCC 14028, value in brackets
[10] = E. faecalis ATCC 29212, value in brackets
[11] = S. aureus ATCC 25923, value in brackets
[12] = H. pylori ATCC 43504, value in brackets
[13] = M. luteus ATCC 10240, value in brackets

O=[N+]([O-])[O-].[Ag+] [AgNO3, Silver nitrate]
15.6 mg/L: MBC (E. coli ATCC 25922; E. coli ATCC 25922) | MBC (V. parvula ATCC 10790; V. parvula ATCC 10790) | MBC ([2]; S. typhimurium ATCC 14028) | MIC ([2]; S. typhimurium ATCC 14028) | MIC (E. faecalis ATCC 29212; E. faecalis ATCC 29212) | MBC (H. pylori ATCC 43504; H. pylori ATCC 43504) | MIC (H. pylori ATCC 43504; H. pylori ATCC 43504)
0.185 µM/mL: MIC (B. cereus ATCC 10876; [7]) | MBC (E. faecalis ATCC 29212; [10]) | MBC (S. aureus ATCC 25923; [11]) | MBC (M. luteus ATCC 10240; [13])
3.9 mg/L: MIC (M. luteus ATCC 10240; M. luteus ATCC 10240)
0.09 µM/mL: MBC (E. coli ATCC 25922; [5]) | MBC (V. parvula ATCC 10790; [6]) | MBC [2, 9] | MIC [2, 9] | MIC (E. faecalis ATCC 29212; [10]) | MBC (H. pylori ATCC 43504; [12]) | MIC (H. pylori ATCC 43504; [12])
7.8 mg/L: MIC (E. coli ATCC 25922; E. coli ATCC 25922) | MIC (V. parvula ATCC 10790; V. parvula ATCC 10790) | MIC (S. aureus ATCC 25923; S. aureus ATCC 25923)
> 10 µM: IC50 (HepG2 cells [1])
0.049 µM/mL: MIC (E. coli ATCC 25922; [5]) | MIC (V. parvula ATCC 10790; [6]) | MIC (S. aureus ATCC 25923; [11])
31.3 mg/L: MIC (B. cereus ATCC 10876; B. cereus ATCC 10876) | MBC (E. faecalis ATCC 29212; E. faecalis ATCC 29212) | MBC (S. aureus ATCC 25923; S. aureus ATCC 25923) | MBC (M. luteus ATCC 10240; M. luteus ATCC 10240)
62.5 mg/L: MBC (B. cereus ATCC 10876; B. cereus ATCC 10876) | MBC (P. acnes ATCC 11827; P. acnes ATCC 11827) | MIC (P. acnes ATCC 11827; P. acnes ATCC 11827)
0.025 µM/mL: MIC (M. luteus ATCC 10240; [13])
0.37 µM/mL: MBC (B. cereus ATCC 10876; [7]) | MBC (P. acnes ATCC 11827; [8]) | MIC (P. acnes ATCC 11827; [8])

Cc1ncc([N+](=O)[O-])n1CCO [MTZ, 2-Methyl-5-nitroimidazole-1-ethanol]
> 10 µM: IC50 (HepG2 cells [1]; Homo sapiens) | IC50 (HepG2 cells [3]) | IC50 (HepG2 cells [4])
0.01 µM/mL: MBC (V. parvula ATCC 10790; [6]) | MIC (V. parvula ATCC 10790; [6])
1.95 mg/L: MBC (V. parvula ATCC 10790; Veillonella parvula, ATCC10790) | MIC (V. parvula ATCC 10790; Veillonella parvula, ATCC10790)
15.6 mg/L: MBC (H. pylori ATCC 43504; Helicobacter pylori, ATCC43504, H. pylori ATCC 43504, read-out: MBC) | MIC (H. pylori ATCC 43504; Helicobacter pylori, ATCC43504, H. pylori ATCC 43504, read-out: MIC)
2.93 µM/mL: MIC (B. cereus ATCC 10876; [7])
> 5.85 µM/mL: MBC (E. coli ATCC 25922; [5]) | MIC (E. coli ATCC 25922; [5]) | MBC (B. cereus ATCC 10876; [7]) | MBC (P. acnes ATCC 11827; [8]) | MIC (P. acnes ATCC 11827; [8]) | MBC [2, 9] | MIC [2, 9] | MBC (E. faecalis ATCC 29212; [10]) | MIC (E. faecalis ATCC 29212; [10]) | MBC (S. aureus ATCC 25923; [11]) | MIC (S. aureus ATCC 25923; [11]) | MBC (M. luteus ATCC 10240; [13])
> 1000 mg/L: MBC (E. coli ATCC 25922; Escherichia coli, ATCC25922, E. coli ATCC 25922, read-out: MBC) | MIC (E. coli ATCC 25922; Escherichia coli, ATCC25922, E. coli ATCC 25922, read-out: MIC) | MBC (B. cereus ATCC 10876; Bacillus cereus, ATCC10876, B. cereus ATCC 10876, read-out: MBC) | MBC (P. acnes ATCC 11827; Cutibacterium acnes, ATCC11827, P. acnes ATCC 11827, read-out: MBC) | MIC (P. acnes ATCC 11827; Cutibacterium acnes, ATCC11827, P. acnes ATCC 11827, read-out: MIC) | MBC ([2]; Salmonella enterica, S. typhimurium ATCC 14028, read-out: MBC) | MIC ([2]; Salmonella enterica, S. typhimurium ATCC 14028, read-out: MIC) | MBC (E. faecalis ATCC 29212; Enterococcus faecalis, ATCC29212, E. faecalis ATCC 29212, read-out: MBC) | MIC (E. faecalis ATCC 29212; Enterococcus faecalis, ATCC29212, E. faecalis ATCC 29212, read-out: MIC) | MBC (S. aureus ATCC 25923; Staphylococcus aureus, ATCC25923, S. aureus ATCC 25923, read-out: MBC) | MIC (S. aureus ATCC 25923; Staphylococcus aureus, ATCC25923, S. aureus ATCC 25923, read-out: MIC) | MBC (M. luteus ATCC 10240; Micrococcus luteus, ATCC10240, M. luteus ATCC 10240, read-out: MBC)
5.85 µM/mL: MIC (M. luteus ATCC 10240; [13])
0.09 µM/mL: MBC (H. pylori ATCC 43504; [12]) | MIC (H. pylori ATCC 43504; [12])
1000 mg/L: MIC (M. luteus ATCC 10240; Micrococcus luteus, ATCC10240, M. luteus ATCC 10240, read-out: MIC)
500 mg/L: MIC (B. cereus ATCC 10876; Bacillus cereus, ATCC10876, B. cereus ATCC 10876, read-out: MIC)
